Results from patent publication US8017602B2, “N-(2-(2-(5-hydroxy-3-oxo-3,4-dihydro-2H-benzo[b][1,4]oxazin-8-yl)ethylamino)ethyl)-3-(phenethoxy)propanamide derivatives, processes for their preparation, pharmaceutical compositions containing them and their use in therapy” (AstraZeneca AB, priority 2008, dated 2011).
Structures can show the parent of a compound that is named as a salt.

Experiments:
[1] = target: T1, recombinant human Dopamine Subtype D2s receptors (Homo sapiens, UniProt P14416); experiment: Dopamine D2 selectivity binding assay ([3H]-spiperone); conditions: inhibition of [3H]-spiperone binding, human D2s membranes; read-out: D2 bind pIC50 (converted)
T1 construct: purchased Perkin Elmer
Protocol: Membranes containing recombinant human Dopamine Subtype D2s receptors were obtained from Perkin Elmer. These were diluted in Assay Buffer (50 mM HEPES, 1 mM EDTA, 120 mM NaCl, 0.1% gelatin, pH 7.4) to provide a final concentration of membranes that gave a clear window between maximum and minimum specific binding.
Assays were performed in U-bottomed 96-well polypropylene plates. 30 μL [^3H]-spiperone (0.16 nM final concentration) and 30 μl of test compound (10× final concentration) were added to each test well. For each assay plate 8 replicates were obtained for [^3H]-spiperone binding in the presence of 30 μL vehicle (10% (v/v) DMSO in Assay Buffer; defining maximum binding) or 30 μl Haloperidol (10 μM final concentration; defining non-specific binding (NSB)). Membranes were then added to achieve a final volume of 300 μL. The plates were incubated for 2 h at room temperature and then filtered onto PEI coated GF/B filter plates, pre-soaked for 1 h in Assay Buffer, using a 96-well plate Tomtec cell harvester. Five washes with 250 μl wash buffer (50 mM HEPES, 1 mM EDTA, 120 mM NaCl, pH 7.4) were performed at 4° C. to remove unbound radioactivity. The plates were dried then sealed from underneath using Packard plate sealers and MicroScint-O (50 μl) was added to each well. The plates were sealed (TopSeal A) and filter-bound radioactivity was measured with a scintillation counter (TopCount, Packard BioScience) using a 3-minute counting protocol.
Total specific binding (B0) was determined by subtracting the mean NSB from the mean maximum binding. NSB values were also subtracted from values from all other wells. […] Data was fitted to a four parameter logistic equation to determine the compound potency, which was expressed as pIC50 (negative log molar concentration inducing 50% inhibition of [^3H]-spiperone binding).

Adrenergic β2 = target: T2, Adrenergic β2 (Homo sapiens, UniProt P07550); experiment: Adrenergic β2 mediated cAMP production in H292 cells (AlphaScreen cAMP detection); format: cell-based; conditions: for β2 Int Act: Intrinsic Activity, fraction relative to the maximum activity determined for formoterol; for EC50: cAMP production, 60 min at room temperature, 300 μM rolipram, read-out: β2 pEC50 (converted)
T2 construct: Adherent H292 cells were removed from tissue culture flasks; endogenous in cells; host or cells: H292 cells
Protocol: H292 cells were grown in 225 cm2 flasks incubator at 37° C., 5% CO2 in RPMI medium containing, 10% (v/v) FBS (foetal bovine serum) and 2 mM L-glutamine.
Adherent H292 cells were removed from tissue culture flasks by treatment with Accutase™ cell detachment solution for 15 min. Flasks were incubated for 15 min in a humidified incubator at 37° C., 5% CO2. Detached cells were re-suspended in RPMI media (containing 10% (v/v) FBS and 2 mM L-glutamine) at […]. 10000 cells in 100 μl were added to each well of a tissue-culture-treated 96-well plate and the cells incubated overnight in a humidified incubator at 37° C., 5% CO2. The culture media was removed and cells were washed twice with 100 μl assay buffer and replaced with 50 μL assay buffer (HBSS solution containing 10 mM HEPES pH7.4 and 5 mM glucose). Cells were rested at room temperature for 20 min after which time 25 μl of rolipram (1.2 mM made up in assay buffer containing 2.4% (v/v) dimethylsulphoxide) was added. Cells were incubated with rolipram for 10 min after which time test compounds were added and the cells were incubated for 60 min at room temperature. The final rolipram concentration in the assay was 300 μM and final vehicle concentration was 1.6% (v/v) dimethylsulphoxide. The reaction was stopped by removing supernatants, washing once with 100 μL assay buffer and replacing with 50 μL lysis buffer. The cell monolayer was frozen at −80° C. for 30 min (or overnight).
AlphaScreen™ cAMP Detection
The concentration of cAMP (cyclic adenosine monophosphate) in the cell lysate was determined using AlphaScreen™ methodology. The frozen cell plate was thawed for 20 min on a plate shaker then 10 μl of the cell lysate was transferred to a 96-well white plate. 40 μL of mixed AlphaScreen™ detection beads pre-incubated with biotinylated cAMP, was added to each well and the plate incubated at room temperature for 10 h in the dark. The AlphaScreen™ signal was measured using an EnVision spectrophotometer (Perkin-Elmer Inc.) with the recommended manufacturer's settings. cAMP concentrations were determined by reference to a calibration curve determined in the same experiment using standard cAMP concentrations. Concentration response curves for agonists were constructed and data was fitted to a four parameter logistic equation to determine both the pEC50 and Intrinsic Activity. Intrinsic Activity was expressed as a fraction relative to the maximum activity determined for formoterol in each experiment.

T1 sequence (P14416 1-414 isoform P14416-2): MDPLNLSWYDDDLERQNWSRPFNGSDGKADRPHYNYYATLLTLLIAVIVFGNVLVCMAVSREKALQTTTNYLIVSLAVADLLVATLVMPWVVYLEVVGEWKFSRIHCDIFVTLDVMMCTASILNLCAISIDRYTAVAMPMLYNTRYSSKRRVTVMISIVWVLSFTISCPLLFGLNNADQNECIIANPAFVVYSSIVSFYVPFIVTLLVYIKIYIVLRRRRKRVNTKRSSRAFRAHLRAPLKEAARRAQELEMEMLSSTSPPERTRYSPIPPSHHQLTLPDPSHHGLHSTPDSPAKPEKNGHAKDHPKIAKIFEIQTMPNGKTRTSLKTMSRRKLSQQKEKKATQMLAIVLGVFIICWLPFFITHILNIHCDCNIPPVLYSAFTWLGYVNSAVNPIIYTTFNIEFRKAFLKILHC
T2 sequence (P07550 whole entry): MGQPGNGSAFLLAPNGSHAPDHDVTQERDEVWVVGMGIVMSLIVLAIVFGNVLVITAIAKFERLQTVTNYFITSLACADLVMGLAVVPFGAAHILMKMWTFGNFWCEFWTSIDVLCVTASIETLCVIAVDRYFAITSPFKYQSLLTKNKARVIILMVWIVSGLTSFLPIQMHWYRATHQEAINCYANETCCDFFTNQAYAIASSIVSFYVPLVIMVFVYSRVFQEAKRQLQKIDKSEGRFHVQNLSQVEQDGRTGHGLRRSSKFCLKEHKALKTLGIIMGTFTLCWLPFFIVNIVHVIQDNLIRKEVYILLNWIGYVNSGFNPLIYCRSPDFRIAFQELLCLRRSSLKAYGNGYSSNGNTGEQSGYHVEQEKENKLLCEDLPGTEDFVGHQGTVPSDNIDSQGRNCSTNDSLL

Row | IC50 [1] [nM] | β2 Int Act (Adrenergic β2) | EC50 (Adrenergic β2) [nM] | Compound
1 | 2510 | 0.90 | 7.94 | CC(C)n1cc(-c2cccc(CCOCCC(=O)N(CCNCCc3ccc(O)c4c3OCC(=O)N4)C3CCCC3)c2)cn1 [Example 22, N-Cyclopentyl-N-(2-(2-(5-hydroxy-3-oxo-3,4-dihydro-2H-benzo[b][1,4]oxazin-8-yl)ethylamino)ethyl)-3-(3-(1-isopropyl-1H-pyrazol-4-yl)phenethoxy)propanamide Trifluoroacetic Acid Salt]
2 | > 10000 | 0.83 | 12.6 | O=C1COc2c(CCNCCN(C(=O)CCOCCc3cccc(-c4nn[nH]n4)c3)C3CCCCC3)ccc(O)c2N1 [Example 15, 3-(3-(2H-Tetrazol-5-yl)phenethoxy)-N-cyclohexyl-N-(2-(2-(5-hydroxy-3-oxo-3,4-dihydro-2H-benzo[b][1,4]oxazin-8-yl)ethylamino)ethyl)propanamide Trifluoroacetic Acid Salt]
3 | 2510 | 0.94 | 7.94 | Cn1cc(-c2cc(F)cc(CCOCCC(=O)N(CCNCCc3ccc(O)c4c3OCC(=O)N4)C3CCCCC3)c2)cn1 [Example 17, N-Cyclohexyl-3-(3-fluoro-5-(1-methyl-1H-pyrazol-4-yl)phenethoxy)-N-(2-(2-(5-hydroxy-3-oxo-3,4-dihydro-2H-benzo[b][1,4]oxazin-8-yl)ethylamino)ethyl)propanamide Trifluoroacetic Acid Salt]
4 | 3980 | 0.93 | 3.16 | Cn1cc(-c2cccc(CCOCCC(=O)N(CCNCCc3ccc(O)c4c3OCC(=O)N4)C3CCCCCC3)c2)cn1 [Example 31, N-Cycloheptyl-N-(2-(2-(5-hydroxy-3-oxo-3,4-dihydro-2H-benzo[b][1,4]oxazin-8-yl)ethylamino)ethyl)-3-(3-(1-methyl-1H-pyrazol-4-yl)phenethoxy)propanamide Trifluoroacetic Acid Salt]
5 | 3160 | 0.85 | 10 | Cn1cc(-c2cc(CCOCCC(=O)N(CCNCCc3ccc(O)c4c3OCC(=O)N4)C3CCCCC3)ccc2F)cn1 [Example 13, N-Cyclohexyl-3-(4-fluoro-3-(1-methyl-1H-pyrazol-4-yl)phenethoxy)-N-(2-(2-(5-hydroxy-3-oxo-3,4-dihydro-2H-benzo[b][1,4]oxazin-8-yl)ethylamino)ethyl)propanamide Trifluoroacetic Acid Salt]

More lines, now with the values behind:

Row | Compound | IC50 [1] [nM] | β2 Int Act (Adrenergic β2) | EC50 (Adrenergic β2) [nM]
6 | O=C1COc2c(CCNCCN(C(=O)CCOCCc3cccc(-c4cnn(CC5CC5)c4)c3)C3CCCC3)ccc(O)c2N1 [Example 19, N-Cyclopentyl-3-(3-(1-(cyclopropylmethyl)-1H-pyrazol-4-yl)phenethoxy)-N-(2-(2-(5-hydroxy-3-oxo-3,4-dihydro-2H -benzo[b][1,4]oxazin-8-yl)ethylamino)ethyl)propanamide Trifluoroacetic Acid Salt] | 2510 | 0.95 | 6.31
7 | CCCC[C@@H](C)N(CCNCCc1ccc(O)c2c1OCC(=O)N2)C(=O)CCOCCc1cccc(-c2cnn(C)c2)c1 [Example 30, (R)—N-(Hexan-2-yl)-N-(2-(2-(5-hydroxy-3-oxo-3,4-dihydro-2H-benzo[b][1,4]oxazin-8-yl)ethylamino)ethyl)-3-(3-(1-methyl-1H-pyrazol-4-yl)phenethoxy)propanamide Trifluoroacetic Acid Salt] | 2510 | 0.93 | 12.6
8 | Cn1nnnc1-c1cccc(CCOCCC(=O)N(CCNCCc2ccc(O)c3c2OCC(=O)N3)C2CCCCC2)c1 [Example 08, N-Cyclohexyl-N-(2-(2-(5-hydroxy-3-oxo-3,4-dihydro-2H-benzo[b][1,4]oxazin-8-yl)ethylamino)ethyl)-3-(3-(1-methyl-1H-tetrazol-5-yl)phenethoxy)propanamide Trifluoroacetic Acid Salt] | 3160 | 0.92 | 15.8
9 | Cn1cc(-c2cccc(CCOCCC(=O)N(CCNCCc3ccc(O)c4c3OCC(=O)N4)C3CCCCC3)c2)nn1 [Example 05, N-Cyclohexyl-N-(2-(2-(5-hydroxy-3-oxo-3,4-dihydro-2H-benzo[b][1,4]oxazin-8-yl)ethylamino)ethyl)-3-(3-(1-methyl-1H-1,2,3-triazol-4-yl)phenethoxy)propanamide Trifluoroacetic Acid Salt] | 3160 | 0.87 | 7.94
10 | CCn1cc(-c2cccc(CCOCCC(=O)N(CCNCCc3ccc(O)c4c3OCC(=O)N4)C3CCCCC3)c2)nn1 [Example 04, N-Cyclohexyl-3-(3-(1-ethyl-1H-1,2,3-triazol-4-yl)phenethoxy)-N-(2-(2-(5-hydroxy-3-oxo-3,4-dihydro-2H-benzo[b][1,4]oxazin-8-yl)ethylamino)ethyl)propanamide Trifluoroacetic Acid Salt] | 6310 | 0.96 | 12.6
11 | CCC[C@@H](C)N(CCNCCc1ccc(O)c2c1OCC(=O)N2)C(=O)CCOCCc1cccc(-c2cnn(C(C)C)c2)c1 [Example 21, (R)—N-(2-(2-(5-Hydroxy-3-oxo-3,4-dihydro-2H-benzo[b][1,4]oxazin-8-yl)ethylamino)ethyl)-3-(3-(1-isopropyl-1H-pyrazol-4-yl)phenethoxy)-N-(pentan-2-yl)propanamide Trifluoroacetic Acid Salt] | 3160 | 1.00 | 12.6
12 | CC(C)[C@@H](C)N(CCNCCc1ccc(O)c2c1OCC(=O)N2)C(=O)CCOCCc1cccc(-c2cnn(C)c2)c1 [Example 09, (R)—N-(2-(2-(5-Hydroxy-3-oxo-3,4-dihydro-2H-benzo[b][1,4]oxazin-8-yl)ethylamino)ethyl)-3-(3-(1-methyl-1H-pyrazol-4-yl)phenethoxy)-N-(3-methylbutan-2-yl)propanamide Trifluoroacetic Acid Salt] | > 10000 | 0.92 | 7.94
13 | Cc1nc(-c2cccc(CCOCCC(=O)N(CCNCCc3ccc(O)c4c3OCC(=O)N4)C3CCCCC3)c2)no1 [Example 27, N-Cyclohexyl-N-(2-(2-(5-hydroxy-3-oxo-3,4-dihydro-2H-benzo[b][1,4]oxazin-8-yl)ethylamino)ethyl)-3-(3-(5-methyl-1,2,4-oxadiazol-3-yl)phenethoxy)propanamide Trifluoroacetic Acid Salt] | > 5010 | 0.91 | 15.8
14 | CCn1cc(-c2cccc(CCOCCC(=O)N(CCNCCc3ccc(O)c4c3OCC(=O)N4)C3CCCCC3)c2)cn1 [Example 28, N-Cyclohexyl-3-(3-(1-ethyl-1H-pyrazol-4-yl)phenethoxy)-N-(2-(2-(5-hydroxy-3-oxo-3,4-dihydro-2H-benzo[b][1,4]oxazin-8-yl)ethylamino)ethyl)propanamide] | > 5010 | 0.90 | 6.31
